In patent US7307063B2, “Melanocortin metallopeptides for treatment of sexual dysfunction” (Palatin Technologies, Inc., priority 2001, dated 2007):
Non-standard residues stand in square brackets, D forms with d. No end group written: not given here. *: point of attachment. 2Nal = N[C@@H](Cc1ccc2ccccc2c1)C(=O)O; Heptanoyl = CCCCCCC(=O)*; Nle = CCCC[C@H](N)C(=O)O

Columns and labels:
MC4-R = target: T1, MC4-R (Homo sapiens, UniProt P32245); assay: Competitive binding assay: inhibition of 125I-NDP-α-MSH binding to HEK-293 membranes with cloned human receptor subtype 4; settings: Table 6, mean of triplicate
T1 construct: expressed in transfected cells; host or cells: HEK-293
T1 sequence (P32245 whole entry): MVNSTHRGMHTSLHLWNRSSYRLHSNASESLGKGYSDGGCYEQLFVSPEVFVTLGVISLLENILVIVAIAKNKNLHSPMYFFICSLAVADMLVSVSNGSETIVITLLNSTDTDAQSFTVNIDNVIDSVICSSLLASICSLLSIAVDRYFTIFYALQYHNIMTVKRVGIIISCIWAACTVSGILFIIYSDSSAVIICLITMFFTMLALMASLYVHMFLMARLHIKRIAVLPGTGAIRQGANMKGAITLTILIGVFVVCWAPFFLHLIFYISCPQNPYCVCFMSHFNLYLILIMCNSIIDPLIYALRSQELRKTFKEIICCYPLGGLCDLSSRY
Experimental: (§1) Rhenium-complexed metallopeptides of the formulas given in Table 1 were prepared, with the metallopeptides complexed with rhenium using the rhenium transfer agent ReOCl3(PPh3)2 in the presence of 1,8-Diazabicyclo[5,4,0] undec-7-ene as a base, as disclosed in International Application PCT/US00/16396, filed Jun. 14, 2000, Melanocortin Metallopeptide Constructs, Combinatorial Libraries and Applications, incorporated by reference herein. Affinities of compounds were measured using membranes from HEK-293 cells containing cloned human melanocortin receptor subtypes 3, 4 and 5. MC1-R membranes were isolated from B16—F10 mouse melanoma cells. The assay tube also contained a chosen concentration of the test peptide of this invention, complexed to a rhenium metal ion as indicated, for determining its efficacy in inhibiting the binding of ^125I-NDP-α-MSH to its receptor. Non-specific binding was measured by complete inhibition of binding of ^125I-NDP-α-MSH in the assay with the presence of 1 μM α-MSH. 100% specific binding was defined as the difference in radioactivity (cpm) bound to cell membranes in the absence and presence of 1 μM α-MSH. The cpm obtained in presence of test compounds were normalized with respect to 100% specific binding to determine the percent inhibition of ^125I-NDP-α-MSH binding.
(§2) Peptide sequences set forth in Table 6 were prepared using conventional synthetic means. The resulting sequences were rhenium-complexed to form metallopeptides, with the metallopeptides complexed with rhenium using the rhenium transfer agent ReOCl3(PPh3)2 in the presence of 1,8-Diazabicyclo[5,4,0] undec-7-ene as a base. Percent inhibition was determined as in Example 1 using the Re-complexed metallopeptides, using the same methods as described therein. All measures are means of triplicate determinations.

MC1-R = target: T2, MC1-R (Mus musculus, UniProt Q01727); assay: Competitive binding assay: inhibition of 125I-NDP-α-MSH binding to membranes from B16-F10 mouse melanoma cells; settings: Table 6, mean of triplicate
T2 construct: MC1-R membranes were isolated from B16—F10 mouse melanoma cells; endogenous in cells; host or cells: B16-F10 mouse melanoma cells
T2 sequence (Q01727 whole entry): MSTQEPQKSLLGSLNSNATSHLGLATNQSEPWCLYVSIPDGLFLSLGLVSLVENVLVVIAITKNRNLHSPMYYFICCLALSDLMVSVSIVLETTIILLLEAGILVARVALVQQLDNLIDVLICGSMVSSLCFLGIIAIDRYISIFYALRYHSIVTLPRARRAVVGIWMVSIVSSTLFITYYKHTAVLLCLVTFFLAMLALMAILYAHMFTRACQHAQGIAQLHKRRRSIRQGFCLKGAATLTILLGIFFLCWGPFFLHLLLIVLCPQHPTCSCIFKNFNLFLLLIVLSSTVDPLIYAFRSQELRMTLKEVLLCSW
Experimental: as §1, §2

Row | Substance | % Inhibition of Binding hMC4-R (MC4-R; 1 μM) [%] | % Inhibition of Binding MC1-R (MC1-R; 1 μM) [%] | further results
1 | 1-Naphthylacetyl-Arg-Arg-D-Phe(4′-Cl)-Cys-Nal 2′-NH2 | 98 |  | 
2 | 1′-Naphthyl acetyl-Arg-Arg-D-Phe(3′-Cl)-Cys-Trp-NH2 | 92 | 77 | 
3 | 1′-Naphthyl acetyl-Arg-Arg-D-Phe(4′-Cl)-Cys-Trp-NH2 | 98 | 97 | 
4 | 2′-Naphthyl acetyl-Arg-Arg-D-Phe(3′-Cl)-Cys-Trp-NH2 | 90 | 78 | 
5 | 2′-Naphthyl acetyl-Arg-Arg-D-Phe(4′-Cl)-Cys-Trp-NH2 | 96 | 93 | 
6 | 3′-Br Phenyl acetyl-Arg-Ala-D-Phe(3′-Cl)-Cys-Trp-NH2 | 84 | 23 | 
7 | 3′-Br Phenyl acetyl-Arg-Ala-D-Phe(4′-CF3)-Cys-Trp-NH2 | 95 | 22 | 
8 | 3′-Br Phenyl acetyl-Arg-Ala-D-Phe(4′-Me)-Cys-Trp-NH2 | 96 | 25 | 
9 | 3′-Br Phenyl acetyl-Arg-Arg-D-Phe(3′-Cl)-Cys-Trp-NH2 | 96 | 79 | 
10 | 3′-Br-Phenylacetyl-Arg-Arg-D-Phe(4′-CH2PO3Et3)-Cys-Trp-NH2 | 61 | 97 | 
11 | 3′-Br-Phenylacetyl-Lys-Ala-D-Phe(4′-CH3)Cys-Lys-NH2 | 73 | 34 | 
12 | 3′-Br-Phenylacetyl-Lys-Lys-D-Phe(4′-CH3)Cys-Lys-NH2 | 69 | 65 | 
13 | 3′-Cl Phenyl acetyl-Arg-Ala-D-Phe(4′-CF3)-Cys-Trp-NH2 | 95 | 21 | 
14 | 3′-Cl Phenyl acetyl-Arg-Arg-D-Phe(4′-CF3)-Cys-Trp-NH2 | 99 | 85 | 
15 | 3′-Cl-Phenylacetyl-Arg-Arg-D-Phe(4′-CH2PO3Et3)-Cys-Trp-NH2 | 52 | 97 | 
16 | 4′-Aminomethyl-Phenylacetyl Arg-Arg-Ala-D-Phe(4′-Cl)-Cys-Trp-NH2 | 84 | 61 | 
17 | 4′-Aminomethyl-Phenylacetyl-Arg-Arg-D-Phe(4′-Cl)-Cys-Trp-NH2 |  |  | % Inhibition of Binding MC1-R (MC1-R; 0.1 μM): 81%; % Inhibition of Binding hMC4-R (MC4-R; 0.1 μM): 57%
18 | (N-PhEt)-D-Phe(2′-Cl)-Lys-Nal 2′-Cys-NH2 |  |  | % Inhibition of Binding MC1-R (MC1-R; 0.1 μM): 64%; % Inhibition of Binding hMC4-R (MC4-R; 0.1 μM): 80%
19 | (R)-4-amino-5-phenyl pentanoyl-Lys-Ala-D-Phe(4′-Me)-Cys-Trp-NH2 | 46 | 23 | 
20 | Ac-His-HyP(Bzl)-D-Phe(2′-Cl)-Arg-Nal 2′-Cys-NH2 | 99 | 84 | 
21 | Ac-KA[dF][dC]R-NH2 | 0 | 8 | 
22 | Ac-KA[dF][dC]RW-NH2 | 13 | 25 | 
23 | Ac-Nle-Arg-Ala-D-Nal 2′-Cys-Lys-NH2 | 36 | 23 | 
24 | Ac-Nle-Arg-Arg-D-Nal 2′-Cys-Lys-NH2 | 96 | 100 | 
25 | Ac-Nle-Arg-Arg-D-Nal 2′-Cys-Trp-Lys-NH2 |  |  | % Inhibition of Binding MC1-R (MC1-R; 0.1 μM): 95%; % Inhibition of Binding hMC4-R (MC4-R; 0.1 μM): 96%
26 | Ac-Ser(Bzl)-D-Phe(4′-Cl)-Arg-Nal 2′-Cys-NH2 | 97 | 49 | 
27 | Ac-WA[dF][dC]R-NH2 | 0 | 24 | 

Row | Substance | % Inhibition of Binding hMC4-R (MC4-R; 1 μM) [%] | % Inhibition of Binding MC1-R (MC1-R; 1 μM) [%] | further results
28 | Ac-WA[dF][dC]RW-NH2 | 3 | 15 | 
29 | Ac-[Nle]AH[dF]RW[dC]K-NH2 | 41 | 87 | 
30 | Ac-[Nle]A[dF][dC]R-NH2 | 0 | 22 | 
31 | Ac-[Nle]A[dF][dC]RW-NH2 | 3 | 29 | 
32 | D-(N-Bzl) Phe(2′-Cl)-Lys-Nal 2′-Cys-NH2 | 97 | 69 | 
33 | D-Phe(2′-Cl)-Lys-Nal 2′-Cys-NH2 | 69 | 51 | 
34 | D-Phe(4′-Cl)-Arg-Nal 2′-Cys-Lys-NH2 |  |  | % Inhibition of Binding MC1-R (MC1-R; 0.01 μM): 43%; % Inhibition of Binding hMC4-R (MC4-R; 0.01 μM): 73%
35 | D-Phe-Arg-Trp-Cys-Lys-NH2 ([dF]RWCK-NH2; also: metallopeptide) | 81 |  | 
36 | D-Phe-Arg-Trp-Cys-Trp-NH2 ([dF]RWCW-NH2; also: metallopeptide) | 70 | 90 | 
37 | FR[dW]CK-NH2 | 12 | 21 | 
38 | FR[dW]CW-NH2 | 34 | 37 | 
39 | Heptanoyl-Ala-Nal 2′-Cys-Trp-NH2 (Heptanoyl-A[2Nal]CW-NH2; also: metallopeptide, metal not given here) | 18 | 15 | 
40 | Heptanoyl-D-Hphe-D-Phe(2′-Cl)-Lys-Nal 2′-Cys-NH2 | 20 | 10 | 
41 | Heptanoyl-D-Phe-Arg-Trp-Cys-Lys-NH2 (Heptanoyl-[dF]RWCK-NH2; also: metallopeptide) | 75 | 82 | 
42 | Heptanoyl-H[dF]RWCK-NH2 | 98 | 100 | 
43 | Heptanoyl-Hphe-D-Phe(4′-Cl)-Arg-Trp-Cys-NH2 |  |  | % Inhibition of Binding MC1-R (MC1-R; 0.1 μM): 45%; % Inhibition of Binding hMC4-R (MC4-R; 0.1 μM): 80%
44 | Heptanoyl-P[dF]RWCK-NH2 | 97 | 99 | 
45 | Heptanoyl-R[dF]GWCK-NH2 | 32 | 92 | 
46 | Heptanoyl-Ser(Bzl)-D-Nal 2′-Arg-Trp-Cys-Lys-NH2 | 100 | 72 | 
47 | Heptanoyl-Ser(Bzl)-D-Nal 2′-Gly-Trp-Cys-Lys-NH2 | 0 | 27 | 
48 | Heptanoyl-Ser(Bzl)-D-Phe(2′-Br)-Lys-Nal 2′-Cys-NH2 | 82 | 27 | 
49 | Heptanoyl-Ser(Bzl)-D-Phe(2′-Cl)-Lys-Hphe-Cys-NH2 | 6 | 12 | 
50 | Heptanoyl-Ser(Bzl)-D-Phe(2′-Cl)-Lys-Nal 2′-Cys-NH2 | 91 | 62 | 
51 | Heptanoyl-Ser(Bzl)-D-Phe(2′-Cl)-Lys-Phe-Cys-NH2 | 19 | 20 | 
52 | Heptanoyl-Ser(Bzl)-D-Phe(2′-Cl)-Lys-Phg-Cys-NH2 | 15 | 16 | 
53 | Heptanoyl-Ser(Bzl)-D-Phe(2′-F)-Lys-Nal 2′-Cys-NH2 | 83 | 57 | 
